In patent US20070031511A1, “Method of treatment” (priority 2003, published 2007):
Entries after “also recorded” stand apart in the source; their conditions may differ.

Assays:
IMGE-5 cells [1] = assay: IMGE-5 cell proliferation, MTT assay; type: cell-based, mice; details: for Mean Response ± SEM (% Control), proliferation of IMGE cells: treatment alone: 10 nM Ggly, 32 mol/mol Bi without Ggly, fetal calf serum positive control
IMGE-5 cells [2] = assay: Wound healing / cell migration assay; type: cell-based, mice; details: for Stimulation of IMGE-5 cell migration: wound healing assay, fragments and mutants shown at 1 nM (FIGS. 7B, 8B)
How it was run: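 Murine gastric IMGE-5 cells at 80% confluence were shifted to 39 °C (non-permissive), serum-starved 24 h, then scratch-wounded. They were treated with or without compound in serum-free DMEM. Wound width was measured at six positions after 24 h and averaged.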

CCK-2 receptor = biological target: T1, CCK-2 receptor (Homo sapiens, UniProt P32239); assay: [125I]-BH-CCK8 displacement, CCK-2 receptor on transiently transfected COS-7 cells; type: binding; parameters: COS-7 cells transiently transfected with CCK-2 receptor cDNA; expressed in transfected cells; host or cells: COS-7
T1 sequence (P32239 1-447): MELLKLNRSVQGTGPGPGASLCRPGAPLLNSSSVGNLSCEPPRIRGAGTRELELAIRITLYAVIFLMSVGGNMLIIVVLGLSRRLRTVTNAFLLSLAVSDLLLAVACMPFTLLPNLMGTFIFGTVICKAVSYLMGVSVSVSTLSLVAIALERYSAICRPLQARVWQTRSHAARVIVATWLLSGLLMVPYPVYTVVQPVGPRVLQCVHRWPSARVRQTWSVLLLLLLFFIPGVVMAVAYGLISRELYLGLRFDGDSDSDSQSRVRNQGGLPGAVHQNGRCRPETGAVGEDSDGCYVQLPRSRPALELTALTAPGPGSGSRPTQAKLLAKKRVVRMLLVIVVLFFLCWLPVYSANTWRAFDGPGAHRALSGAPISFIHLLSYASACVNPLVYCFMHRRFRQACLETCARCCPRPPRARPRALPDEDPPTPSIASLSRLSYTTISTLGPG
Procedure: Non-specific binding was evaluated with […] of unlabelled CCK8. Incubation was stopped by adding 2 ml of ice-cold PBS containing 2% bovine serum albumin. After centrifugation, supernatants were removed and the radioactivity bound to the cell membranes was measured in a γ-counter (LKB, Wallac, Finland).
The lines of best fit shown in FIG. 21 were obtained by nonlinear regression to a single site model with the program Sigmaplot.

[3] = system: HT29 human colorectal carcinoma cells; assay: Ggly-stimulated inositol phosphate production in HT29 cells; type: cell-based
Procedure: Intracellular inositol phosphate production was determined as described previously (Qian et al, 1993). IMGE-5 cells (10^5 cells/ml) were plated in 24-multiwell culture plates in DMEM supplemented with 10% FBS, 200 IU/ml penicillin and 200 μg/ml streptomycin. 24 h later, cells were incubated with DMEM supplemented with antibiotics and Myo-[2-^3H]inositol (2.5 μCi/well) and shifted to 39° C. for 16 h. Cells were then washed with pre-warmed DMEM and incubated (20-30 minutes, 37° C.) with DMEM supplemented with 20 mM LiCl. Loaded cells were then washed in 1 ml of IP buffer (135 mM NaCl, 20 mM N-(2-hydroxyethyl)piperazine-N′-(2-ethanesulfonic acid), 2 mM CaCl2, 1.2 mM MgSO4, 1 mM ethylene glycol-bis(2-aminoethylether)-N,N,N′,N′-tetraacetic acid, 10 mM LiCl, and 0.5% bovine serum albumin, pH 7.45) and incubated with or without agonist in a final volume of 0.5 ml of IP buffer. After 1-h incubation at 37° C., the reaction was stopped by removing the incubation medium and adding 1 ml of a mixture of ethanol/HCl (2000:1; v/v). One ml of each aliquot was applied to a column containing 1.6 ml of a 1:2 (v/v) Dowex AG-1-X8 anion exchange resin in distilled water. The columns were washed with 4 ml of distilled water, followed by 4 ml of 40 mM HCOONH4, and inositol phosphates were eluted with 4 ml of 1 M HCOONH4. The radioactivity of each eluate was counted after addition of Complete phase combining system solution (Amersham, UK). For the positive control, IMGE-5 cells were incubated with a combination of 30 mM NaF and 10 μM AlCl3 under the same experimental conditions.
Ggly-stimulated inositol phosphate production was measured in HT29 human colorectal carcinoma cells.

HT29 cells = assay: HT29 cell proliferation, MTT assay; type: cell-based, human
[4] = system: AGS gastric carcinoma cells; assay: AGS cell proliferation, MTT assay; type: cell-based, human; details: treatment alone: 10 nM Ggly; 32 mol/mol Bi without Ggly; fetal calf serum positive control

Row | Molecule | Increase in proliferation of IMGE-5 (IMGE-5 cells [1]) | Stimulation of IMGE-5 cell migration (IMGE-5 cells [2]) | % Maximum Binding (COS-7) (CCK-2 receptor; binding in the absence of competitor, fitted, mean ± S.E.) | % Maximum Binding (COS-7) (CCK-2 receptor; presence and absence of 1 μM DFO) | Predicted ordinate intercept, FIG. 21 (CCK-2 receptor; single experiment) | Ordinate intercept, FIG. 24A (CCK-2 receptor; single experiment, presence and absence of 1 μM DFO) | Mean Response ± SEM (% Control), proliferation of IMGE cells (IMGE-5 cells [1]) | Inositol phosphate production compared to the control ([3]; HT29 cells, 10 nM Ggly) | HT29 cell proliferation compared to the control (HT29 cells; 10 nM Ggly, MTT) | Mean Response ± SEM (% Control), proliferation of AGS cells [4] | Effect on Ggly-induced migration of IMGE-5 cells (IMGE-5 cells [2]; 2, 8 or 32 moles/mole Ggly, 10 nM Ggly, 17 or 24 hours) | Effect of bismuth ions alone on migration (IMGE-5 cells [2]; maximum concentration tested, without Ggly) | Effect on Ggly-induced inositol phosphate production ([3]; 2, 8, and 32 moles Bi3+/mole Ggly, 10 nM Ggly) | Effect of bismuth ions alone on inositol phosphate production ([3]; HT29 cells, highest concentration tested) | Effect on proliferation induced by Ggly (HT29 cells; 2, 8 or 32 moles/mole, 10 nM Ggly, HT29) | Effect of bismuth ions alone on proliferation (HT29 cells; HT29, highest concentrations tested) | Effect on binding of CCK8 to the CCK-2 receptor (CCK-2 receptor; 2, 8 or 32 moles/mole, transfected COS-7 cells (FIG. 16))
1 | CSCC[C@H](NC(=O)[C@H](Cc1c[nH]c2ccccc12)NC(=O)CNC(=O)[C@H](Cc1ccc(O)cc1)NC(=O)[C@H](C)NC(=O)[C@H](CCC(=O)O)NC(=O)[C@H](CCC(=O)O)NC(=O)[C@H](CCC(=O)O)NC(=O)[C@H](CCC(=O)O)NC(=O)[C@H](CCC(=O)O)NC(=O)[C@H](CC(C)C)NC(=O)[C@H](Cc1c[nH]c2ccccc12)NC(=O)[C@@H]1CCCN1C(=O)CNC(=O)[C@@H]1CCC(=O)N1)C(=O)N[C@@H](CC(=O)O)C(=O)N[C@@H](Cc1ccccc1)C(N)=O [Gamide] | 2 fold | did not stimulate IMGE-5 cell migration; also recorded: inactive | 94.2 ± 2.4% | 81.1 ± 1.7% | 86.1% | 81.1% |  |  |  |  |  |  |  |  |  |  | 
2 | Ggly: glycine-extended gastrin17, 18 amino acid non-amidated gastrin, SEQ ID NO:4, residues 55-72 of progastrin (XGPWLEEEEEAYGWMDFG; (1)..(1) pyroglutamate; listed as Homo sapiens) | 2 fold | considerably reduced wound size |  |  |  |  | 135.7 ± 3.6 % Control | 225% | 120% | 126.0 ± 2.3 % Control |  |  |  |  |  |  | 
3 | [Bi+3] [bismuth ions] |  |  |  |  |  |  | 97.9 ± 2.5 % Control |  |  | 102.2 ± 4.2 % Control | completely blocked | no effect | significantly reduced this Ggly-induced stimulation | no effect | significantly decreased the proliferation induced by Ggly | no effect | no effect
